In patent US6503943B1, “Platinum complex, its preparation and therapeutic application” (priority 1998, dated 2003):
Where “and” joins values, the source holds several entries; their conditions need not be identical. Equal values may be shown once.

Columns and labels:
[1] = test system: ascitic form of Ehrlich tumor (ATE); test: Antitumor effect at animals with ascitic form of Ehrlich tumor (ATE) (Example 11);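 on all read-outs here: half of each dose group killed on day 10, tumor mass taken as animal mass lost on ascites aspiration, ascitocrit by microhematocrit centrifuge, rest followed daily for survival versus reference group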; details: for Survival (in % of control) / Survival time, Geom. mean / Total ascitocrit (%) of control / Total ascitocrit (mass of cell fraction of a tumor), Arithm. mean / Tumor mass (%) of control / Tumor mass, Arithm. mean: 1th-9th day; for Total ascitocrit (%) of control / Total ascitocrit (mass of cell fraction of a tumor), Arithm. mean / Tumor mass (%) of control / Tumor mass, Arithm. mean: dissection 10th day
Experimental: After termination of application, one half of animals in each dosage group was destroyed at 10th day after inoculation in ether narcosis, the ascits were sucked out after laparotomy and the mass of a tumor at each of the animals was determined from the difference of mass before and after sucking out the ascit. Ascitocrit in ascitic liquor of single animals was determined on microhematocrit centrifuge in heparinized capillary tubes of 75 mm length. The value of “total ascitocrit”corresponding to a mass of cells in ascitic liquor has been determined from percentage of ascitocrit and mass of the tumor. Remaining animals were left for monitoring the survival time. In these animals, the survival time was monitored on daily basis. The dependence of the survival time value on the applied dose was evaluated in comparison with the reference group.
The single estimated time points as biological responses were evaluated by a test of equivalence of two mean values (Student's t-test). Geometric mean was calculated from single values of survival time, arithmetic means were calculated from single values of tumor mass and total ascitocrit. Difference between mean values was evaluated by a test of equivalence of two mean values (Student's t-test) under presumption of normal probability distribution of mass values as well as of total ascitocrit values and of logarithmic/normal distribution of temporal values, all under presumption of possible unknown disseminations. Those diferences in mean values, whose values of a test criterium exceeded the critical value at the 5% and 1% significance level were evaluated as statistically significant and highly statistically significant, respectively.
The optimum dosage has been calculated from values of survival time according to the proportional risk model of Cox (Carter et al., 1982). Parameters of Weinbull distribution and logarithmic transformation of introductory data were used for estimation of a basic and modified survival function from experimental data.

[2] = test system: mammal adenocarcinoma MC2111; test: Antitumor effect at animals with solid form of mammal adenocarcinoma MC2111 (Example 9); assay type: in vivo, mice DBA1; details: for Tumor mass (%) of control / Tumor mass, Arithm. mean: 5th-13 day, tumor size 14th day, mass from regression
Gardner lymphosarcoma = test: Antitumor effect at animals with solid form of Gardner lymphosarcoma (Example 8); assay type: in vivo, mice C3H; details: 5th day, tumors weighed 14th day
leucaemia L1210 [3] = test: Antitumor effect at animals with leucaemia L1210, continual regimen (Example 7); assay type: in vivo, mice DBA2; details: for Survival (in % of control) / Survival time, Geom. mean: 1th-9th day
[4] = test system: ascitic form of Ehrlich tumor (ATE); test: Antitumor effect at animals with ascitic form of Ehrlich tumor (ATE) (Example 10); assay type: in vivo, mice ICR; details: for Survival (in % of control) / Survival time, Geom. mean / Tumor mass (%) of control / Tumor mass, Arithm. mean: 1st-9th day; for Tumor mass (%) of control / Tumor mass, Arithm. mean: dissection 10th day
leucaemia L1210 [5] = test: Antitumor effect at animals with leucaemia L1210, single administration (Example 4); assay type: in vivo, mice DBA2; details: mouse, in vivo
leucaemia L1210 [6] = test: Antitumor effect at animals with leucaemia L1210, intermitent administration 3x (Example 5); assay type: in vivo, mice DBA2; details: for Survival (in % of control) / Survival time, Geom. mean: 1st, 5th and 9th day
leucaemia L1210 [7] = test: Antitumor effect at animals with leucaemia L1210, continual versus intermitent regimen (Example 6); assay type: in vivo, mice DBA2
[8] = 9 mg/kg/day p.o. 3x, 1,5,9th day (lowest dose group)
[9] = 12 mg/kg/day p.o. 9x, 1-9th day
[10] = 18 mg/kg/day p.o. 3x, 1,5,9th day
[11] = 36 mg/kg/day p.o. 3x, 1,5,9th day

## CC(=O)[O-].CC(=O)[O-].N.NC12CC3CC(CC(C3)C1)C2.[Cl-].[Cl-].[Pt+4] [LA-12, Af-bis (Acetato)-b-(1-Adamantylamine)-c-ammin-de-dichloroplatinum (IV) Complex]
[1]; 3 mg/kg/day p.o. 9x
  Survival (in % of control): 143%
  Survival time, Geom. mean: 12.7 days
  Total ascitocrit (%) of control: 100%
  Total ascitocrit (mass of cell fraction of a tumor), Arithm. mean: 0.68 g
  Tumor mass (%) of control: 110%
  Tumor mass, Arithm. mean: 4.32 g
[1]; 6 mg/kg/day p.o. 9x
  Survival (in % of control): 153%
  Survival time, Geom. mean: 13.6 days
  Total ascitocrit (%) of control: 99%
  Total ascitocrit (mass of cell fraction of a tumor), Arithm. mean: 0.68 g
  Tumor mass (%) of control: 78%
  Tumor mass, Arithm. mean: 3.07 g
[1]; 12 mg/kg/day p.o. 9x
  Survival (in % of control): 134%
  Survival time, Geom. mean: 11.9 days
  Total ascitocrit (%) of control: 64%
  Total ascitocrit (mass of cell fraction of a tumor), Arithm. mean: 0.44 g
  Tumor mass (%) of control: 47%
  Tumor mass, Arithm. mean: 1.86 g
[1]; p.o.×9, Platidiam 8 and 4 mg/kg s.c.×1, Tab. 8.1
  Evaluation of antitumor effect (survival time versus control), in words: didnot increase the survival time statistically significant
[2]; 3 mg/kg/day p.o. 9x
  Tumor mass (%) of control: 86%
  Tumor mass, Arithm. mean: 4.02 g
[2]; 6 mg/kg/day p.o. 9x
  Tumor mass (%) of control: 80%
  Tumor mass, Arithm. mean: 3.73 g
[2]; 12 mg/kg/day p.o. 9x
  Tumor mass (%) of control: 87%
  Tumor mass, Arithm. mean: 4.05 g
[2]; mouse, in vivo
  Survival (in % of control): 116% and 117%
  Survival time, Geom. mean: 25.1 days and 25.3 days and 27.7 days
[2]; p.o.×9 12, 6, 3 mg/kg/day, Platidiam 8 and 4 mg/kg s.c. once
  Evaluation of antitumor effect, in words: antitumor effective
Gardner lymphosarcoma; 2 mg/kg p.o. 1x
  Tumor mass (%) of control: 80%
  Tumor mass, Arithm. mean: 5.02 g
Gardner lymphosarcoma; 8 mg/kg p.o. 1x
  Tumor mass (%) of control: 88%
  Tumor mass, Arithm. mean: 5.46 g
Gardner lymphosarcoma; 32 mg/kg p.o. 1x
  Tumor mass (%) of control: 77%
  Tumor mass, Arithm. mean: 4.80 g
Leucaemia L1210 [3]; 3 mg/kg/day p.o. 9x
  Survival (in % of control): 198%
  Survival time, Geom. mean: 44.6 days
Leucaemia L1210 [3]; 6 mg/kg/day p.o. 9x
  Survival (in % of control): 172%
  Survival time, Geom. mean: 38.8 days
Leucaemia L1210 [3]; 12 mg/kg/day p.o. 9x
  Survival (in % of control): 210%
  Survival time, Geom. mean: 47.2 days
Leucaemia L1210 [3]; in the dosages used, p.o.×9
  Evaluation of antitumor effect (survival time versus control), in words: antitumor effective
  Increase of survival time value in comparison with the control group: 130%
[4]; 3 mg/kg/day p.o. 9x
  Survival (in % of control): 157%
  Survival time, Geom. mean: 18.0 days
  Tumor mass (%) of control: 104%
  Tumor mass, Arithm. mean: 2.76 g
[4]; 6 mg/kg/day p.o. 9x
  Survival (in % of control): 219%
  Survival time, Geom. mean: 25.1 days
  Tumor mass (%) of control: 100%
  Tumor mass, Arithm. mean: 2.66 g
[4]; 12 mg/kg/day p.o. 9x
  Survival (in % of control): 135%
  Survival time, Geom. mean: 15.5 days
  Tumor mass (%) of control: 84%
  Tumor mass, Arithm. mean: 2.23 g
[4]; Tab. 7-2
  Significance of mean survival time increase in comparison with untreated control (p≦0.01), in words: atatistically highly significant
Leucaemia L1210 [5]
  Increase of mean value of survival time in comparison with the untreated control group: 55%
Leucaemia L1210 [6]; 2 mg/kg/day p.o. 3x
  Survival (in % of control): >121%
  Survival time, Geom. mean: 19.0 days
Leucaemia L1210 [6]; 4 mg/kg/day p.o. 3x
  Survival (in % of control): 147%
  Survival time, Geom. mean: 23.0 days
Leucaemia L1210 [6]; 4 mg/kg/day p.o. 3x, listed as LA-] 2
  Survival (in % of control): 148%
Leucaemia L1210 [6]; 8 mg/kg/day p.o. 3x
  Survival (in % of control): 118%
  Survival time, Geom. mean: 18.5 days
Leucaemia L1210 [6]; intermitent oral administration 3x
  Optimum dose as calculated according to Carter: 4.55 mg/kg/day p.o.×3
Leucaemia L1210 [7]; 3 mg/kg/day p.o. 9x, 1-9th day
  Survival (in % of control): 96%
  Survival time, Geom. mean: 11.1 days
Leucaemia L1210 [7]; 6 mg/kg p.o.×9
  Increase of survival time value in comparison with the control group: 130%
Leucaemia L1210 [7]; 6 mg/kg/day p.o. 9x, 1-9th day
  Survival (in % of control): 230%
  Survival time, Geom. mean: 16.6 days
Leucaemia L1210 [7]; [8]
  Survival (in % of control): 115%
  Survival time, Geom. mean: 13.3 days
Leucaemia L1210 [7]; [9]
  Survival (in % of control): 118%
  Survival time, Geom. mean: 13.6 days
Leucaemia L1210 [7]; [10]
  Survival (in % of control): 158%
  Survival time, Geom. mean: 18.3 days
Leucaemia L1210 [7]; [11]
  Survival (in % of control): 137%
  Survival time, Geom. mean: 15.9 days
Leucaemia L1210 [7]; LA-12 6 mg/kg p.o.×9, Platidiam 8 and 4 mg/kg s.c.×1, LA-2 any of the dosage groups
  Evaluation of antitumor effect (survival time versus control), in words: antitumor effective
